Measurements reported in US10968266B2, “GIP peptide analogues” (University of Copenhagen, priority 2014, dated 2021).

Legend:
[1] = target: T1, human GIP receptor (Homo sapiens, UniProt P48546); experiment: cAMP accumulation assay (agonism, antagonism, Schild analysis), COS-7 cells transfected with human GIP receptor (Example 7); assay type: cell-based; conditions: for Slope of Schild plot: GIP(1-42) dose-response curves with fixed antagonist concentrations; for IC50: inhibition of GIP(1-42) at 50-80% of max receptor activation
T1 construct: host or cells: COS-7 cells, transient transfection (calcium phosphate precipitation), pCMV-Script vector
T1 sequence (P48546 22-466): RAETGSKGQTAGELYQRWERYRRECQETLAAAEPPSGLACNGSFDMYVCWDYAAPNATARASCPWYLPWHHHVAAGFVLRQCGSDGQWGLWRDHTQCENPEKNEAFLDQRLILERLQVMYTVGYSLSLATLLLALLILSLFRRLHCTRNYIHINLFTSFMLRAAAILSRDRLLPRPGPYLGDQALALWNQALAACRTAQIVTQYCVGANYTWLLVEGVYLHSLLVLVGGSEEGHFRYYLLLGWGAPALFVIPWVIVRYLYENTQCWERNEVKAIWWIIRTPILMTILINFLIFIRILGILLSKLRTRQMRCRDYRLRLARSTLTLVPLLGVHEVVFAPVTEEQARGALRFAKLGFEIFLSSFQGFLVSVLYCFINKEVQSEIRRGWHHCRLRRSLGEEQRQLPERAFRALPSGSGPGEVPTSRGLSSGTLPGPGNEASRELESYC
Experimental: COS-7 cells were grown in 10% CO2 and at 37° C. in Dulbecco's modified Eagle's medium 1885 supplemented with 10% fetal bovine serum, 2 mM glutamine, 180 units/ml penicillin, and 45 µg/ml streptomycin. Transfection of COS-7 cells was performed using the calcium phosphate precipitation method with chloroquine addition as previously described (Kissow et al., 2012).
Two days after transfection the cells were washed once with HEPES buffered saline (HBS) and incubated with HBS and 0.5 mM 3-isobutyl-1-methylxanthine (IBMX) for 30 minutes at 37° C. […] After ligand incubation, the HitHunter™ cAMP XS assay (an enzyme fragment complementation-based assay, DiscoveRx, Birmingham, United Kingdom) was carried out according to the manufacturer's instructions. All experiments were made in duplicates, and repeated at least three times. Luminescence was measured by Perkin Elmer™ EnVision 2104 Multilabled reader (Skovlunde, Danmark). In brief, the cells were lysed in the wells, the enzyme fragment-cAMP-antibody, an enzyme fragment and the enzyme substrates were added followed by 1 hour incubation at room temperature on shaker tray. The other enzyme fragment was added to the wells and incubated for 4 hours on shaker tray followed by measurements of luminescence. The ligand-induced cAMP competed with the binding of antibody to the first enzyme fragment and left the two fragments to fuse. The enzyme complex hydrolyzed the substrates and yielded luminescence. The number “n” refers to individual experiments with separate transfections although from same cell line.
IC50, EC50, and Kd/Ki values were determined by nonlinear regression. These, as well as maximal binding capacity (Bmax) values and Schild plot analysis were carried out with the GraphPad Prism 6.0 software (GraphPad, San Diego, Calif., USA) and Microsoft Excel™. Statistical analyses (unpaired t-tests) of two parameters were also performed with GraphPad Prism 6.0. The calculations of Bmax and Ki values were based on the formula for one class of binding sites in homologous competition binding studies and the Cheng Prussoffs formula, respectively (DeBlasi et al., 1989). Kd is the dissociation constant determined by homologous receptor binding. […] Schild plots were performed with log (DR-1) (ordinate) and log(antagonist concentration) (abscissa) to estimate the slopes and Ki values (Lazareno and Birdsall, 1993).

[2] = target: T1, human GIP receptor; experiment: Competitive binding assay with 125I-labelled GIP radioligands, COS-7 cells transfected with human GIP receptor (Example 7); conditions: for fold change GIP(1-30)NH2 / Competitive binding fold (fold change of GIP(1-30)NH2 affinity): relative to GIP(1-30)NH2; for Competitive binding fold (fold change of GIP(1-30)NH2 affinity): radioligand 125I-GIP(1-42)
Experimental: Transfection of COS-7 cells was performed using the calcium phosphate precipitation method with chloroquine addition as previously described (Kissow et al., 2012). […] Nonspecific binding was determined as the binding of radioligand to untransfected cells. All determinations were made in duplicates, and all experiments repeated at least three times. The samples were analyzed for radioactivity using a Wallac Wizard 1470 Gamma Counter (GMI Inc., Minnesota, USA). The number “n” refers to individual experiments with separate transfections although from same cell line. IC50, EC50, and Kd/Ki values were determined by nonlinear regression. […] Statistical analyses (unpaired t-tests) of two parameters were also performed with GraphPad Prism 6.0. The calculations of Bmax and Ki values were based on the formula for one class of binding sites in homologous competition binding studies and the Cheng Prussoffs formula, respectively (DeBlasi et al., 1989). Kd is the dissociation constant determined by homologous receptor binding. […] Schild plots were performed with log (DR-1) (ordinate) and log(antagonist concentration) (abscissa) to estimate the slopes and Ki values (Lazareno and Birdsall, 1993).

[3] = tested on: perfused rat pancreata; experiment: Somatostatin secretion from isolated perfused rat pancreas; conditions: 1 nM hGIP or 100 nM GIP(3-30), 7 mM glucose
Experimental: Non-fasted rats were anaesthetized with an IP injection of Hypnorm/Dormicum and the pancreas was dissected and perfused in situ. […] All other aortic branches were ligated. The venous effluent was collected for 1 min intervals via an obstructing cannula inserted into the portal vein, and stored at −20° C. until analysis. The flow rate was kept constant at 4 ml/min. The perfusion medium was continuously gassed with a 95% O2/5% CO2 mixture to achieve pH 7.4, and maintained at 37° C. during the entire experiment.
Pancreatic somatostatin concentrations in venous effluent were analysed by RIA. Somatostatin immunoreactivity was determined using antiserum 1758, which was raised in rabbits against synthetic cyclic somatostatin and recognizes both somatostatin-14 and somatostatin-28 [37, 38].

CC[C@H](C)[C@H](NC(=O)[C@H](CO)NC(=O)[C@H](Cc1ccc(O)cc1)NC(=O)[C@H](CC(=O)O)NC(=O)[C@H](CO)NC(=O)[C@@H](NC(=O)[C@H](Cc1ccccc1)NC(=O)[C@@H](NC(=O)CNC(=O)[C@H](CCC(=O)O)NC(=O)[C@H](C)N)[C@@H](C)O)[C@@H](C)CC)C(=O)N[C@@H](C)C(=O)N[C@@H](CCSC)C(=O)N[C@@H](CC(=O)O)C(=O)N[C@@H](CCCCN)C(=O)N[C@H](C(=O)N[C@@H](Cc1c[nH]cn1)C(=O)N[C@@H](CCC(N)=O)C(=O)N[C@@H](CCC(N)=O)C(=O)N[C@@H](CC(=O)O)C(=O)N[C@@H](Cc1ccccc1)C(=O)N[C@H](C(=O)N[C@@H](CC(N)=O)C(=O)N[C@@H](Cc1c[nH]c2ccccc12)C(=O)N[C@@H](CC(C)C)C(=O)N[C@@H](CC(C)C)C(=O)N[C@@H](C)C(=O)N[C@@H](CCC(N)=O)C(=O)N[C@@H](CCCCN)C(N)=O)C(C)C)[C@@H](C)CC [GIP(2-30)NH2]
Slope of Schild plot [1]: 0.49±0.14 | Fold lower agonist potency than GIP(1-30)NH2 ([1]; agonist mode): > 3000 fold | Intrinsic agonistic activity in cAMP accumulation ([1]; agonist mode): weak partial agonist | log EC50, cAMP accumulation ([1]; agonist mode, given with negative sign): −8.43±0.33 | IC50 [1]: 21.7 nM | IC50 ([2]; radioligand 125I-GIP(1-30)NH2): 26 nM | fold change GIP(1-30)NH2 ([2]; radioligand 125I-GIP(1-30)NH2): 84.3 fold | Competitive binding fold (fold change of GIP(1-30)NH2 affinity) [2]: 16 fold | IC50 ([2]; radioligand 125I-GIP(2-30)NH2): 2.7 nM | fold change GIP(1-30)NH2 ([2]; radioligand 125I-GIP(2-30)NH2): 10.5 fold | IC50 ([2]; radioligand 125I-GIP(3-30)NH2): 7.7 nM | fold change GIP(1-30)NH2 ([2]; radioligand 125I-GIP(3-30)NH2): 4.6 fold

CC[C@H](C)[C@H](NC(=O)[C@H](CO)NC(=O)[C@H](Cc1ccc(O)cc1)NC(=O)[C@H](CC(=O)O)NC(=O)[C@H](CO)NC(=O)[C@@H](NC(=O)[C@H](Cc1ccccc1)NC(=O)[C@@H](NC(=O)CNC(=O)[C@H](CCC(=O)O)NC(=O)[C@H](C)NC(=O)[C@@H](N)Cc1ccc(O)cc1)[C@@H](C)O)[C@@H](C)CC)C(=O)N[C@@H](C)C(=O)N[C@@H](CCSC)C(=O)N[C@@H](CC(=O)O)C(=O)N[C@@H](CCCCN)C(=O)N[C@H](C(=O)N[C@@H](Cc1c[nH]cn1)C(=O)N[C@@H](CCC(N)=O)C(=O)N[C@@H](CCC(N)=O)C(=O)N[C@@H](CC(=O)O)C(=O)N[C@@H](Cc1ccccc1)C(=O)N[C@H](C(=O)N[C@@H](CC(N)=O)C(=O)N[C@@H](Cc1c[nH]c2ccccc12)C(=O)N[C@@H](CC(C)C)C(=O)N[C@@H](CC(C)C)C(=O)N[C@@H](C)C(=O)N[C@@H](CCC(N)=O)C(=O)N[C@@H](CCCCN)C(=O)NCC(=O)N[C@@H](CCCCN)C(=O)N[C@@H](CCCCN)C(=O)N[C@@H](CC(N)=O)C(=O)N[C@@H](CC(=O)O)C(=O)N[C@@H](Cc1c[nH]c2ccccc12)C(=O)N[C@@H](CCCCN)C(=O)N[C@@H](Cc1c[nH]cn1)C(=O)N[C@@H](CC(N)=O)C(=O)N[C@H](C(=O)N[C@H](C(=O)N[C@@H](CCC(N)=O)C(=O)O)[C@@H](C)O)[C@@H](C)CC)C(C)C)[C@@H](C)CC [GIP(1-42)]
Somatostatin secretion induced by the peptide alone [3]: robust somatostatin secretion

CC[C@H](C)[C@H](NC(=O)[C@H](CO)NC(=O)[C@H](Cc1ccc(O)cc1)NC(=O)[C@H](CC(=O)O)NC(=O)[C@H](CO)NC(=O)[C@@H](NC(=O)[C@H](Cc1ccccc1)NC(=O)[C@@H](NC(=O)CN)[C@@H](C)O)[C@@H](C)CC)C(=O)N[C@@H](C)C(=O)N[C@@H](CCSC)C(=O)N[C@@H](CC(=O)O)C(=O)N[C@@H](CCCCN)C(=O)N[C@H](C(=O)N[C@@H](Cc1c[nH]cn1)C(=O)N[C@@H](CCC(N)=O)C(=O)N[C@@H](CCC(N)=O)C(=O)N[C@@H](CC(=O)O)C(=O)N[C@@H](Cc1ccccc1)C(=O)N[C@H](C(=O)N[C@@H](CC(N)=O)C(=O)N[C@@H](Cc1c[nH]c2ccccc12)C(=O)N[C@@H](CC(C)C)C(=O)N[C@@H](CC(C)C)C(=O)N[C@@H](C)C(=O)N[C@@H](CCC(N)=O)C(=O)N[C@@H](CCCCN)C(N)=O)C(C)C)[C@@H](C)CC [GIP(4-30)NH2]
Slope of Schild plot [1]: 0.75±0.02 | IC50 [1]: 108 nM | Competitive binding fold (fold change of GIP(1-30)NH2 affinity) [2]: 24 fold

CC[C@H](C)[C@H](NC(=O)[C@H](CO)NC(=O)[C@H](Cc1ccc(O)cc1)NC(=O)[C@H](CC(=O)O)NC(=O)[C@H](CO)NC(=O)[C@@H](NC(=O)[C@H](Cc1ccccc1)NC(=O)[C@@H](N)[C@@H](C)O)[C@@H](C)CC)C(=O)N[C@@H](C)C(=O)N[C@@H](CCSC)C(=O)N[C@@H](CC(=O)O)C(=O)N[C@@H](CCCCN)C(=O)N[C@H](C(=O)N[C@@H](Cc1c[nH]cn1)C(=O)N[C@@H](CCC(N)=O)C(=O)N[C@@H](CCC(N)=O)C(=O)N[C@@H](CC(=O)O)C(=O)N[C@@H](Cc1ccccc1)C(=O)N[C@H](C(=O)N[C@@H](CC(N)=O)C(=O)N[C@@H](Cc1c[nH]c2ccccc12)C(=O)N[C@@H](CC(C)C)C(=O)N[C@@H](CC(C)C)C(=O)N[C@@H](C)C(=O)N[C@@H](CCC(N)=O)C(=O)N[C@@H](CCCCN)C(N)=O)C(C)C)[C@@H](C)CC [GIP(5-30)NH2]
Type of antagonism (Schild analysis) [1]: pure competitive antagonists | Slope of Schild plot [1]: 1.1±0.04 | IC50 [1]: 11.9 nM | Competitive binding fold (fold change of GIP(1-30)NH2 affinity) [2]: 6.6 fold
